Data on 12 compounds can be found in US9884812B2, “Use of DDX3X inhibitors for the treatment of pneumovirus infections” (priority 2014, dated 2018).

Read-outs that look alike come from different tables or passages of the source.

Data set [1] can be described thus: Solubility in cell medium. The data set is classed as physicochemical. The conditions noted are these: solution of ligand in DMSO (20 mM) diluted in cell media to 100 μM; scale from 'very poor' (almost insoluble) to 'very good' (freely soluble over extended periods at 4° C.).
The next data set concerns HEp2 or BSC1 cells. Kind of data set: Toxicity to cells in the TCID50 screen (mock control). The data set is classed as cell-based. How it is done: This method provides a rapid approach to initially screen compounds and was developed as an increased number of compounds were synthesised. […] Virus was then added over 5 different half log dilutions starting at a multiplicity of infection of 0.02 plus mock control. Three dilutions of compound plus a DMSO control were screened per plate. […] Identical plate repeats for each compound dilution were fixed in subsequent days as indicated.

The mark [2] stands for this setting: cellular RSV TCID50 assay tables.

For the compound `Cc1ccccc1NC(=O)Nc1cccc(Br)c1` [Compound 16, 1-(3-bromophenyl)-3-(2-methylphenyl)urea], the “Solubility in cell medium” value in data set [1] is reported as “moderate”. In addition, the Toxicity entry in the data set on HEp2 or BSC1 cells (setting [2]) is “toxic at 100 μM”.
On to `COc1cccc(NC(=O)Nc2cccc(NC(=O)Nc3cccc(OC)c3)c2)c1` [Compound 34, 1,1′-(1,3-phenylene)bis(3-(3-methoxyphenyl)urea)], for which the “Solubility in cell medium” value in data set [1] is “poor”. For the same compound, the Toxicity result in the data set on HEp2 or BSC1 cells (setting [2]) was “toxic at 100 μM”.
Taken in the same sequence, the figures for `CCCCCCCCNC(=O)Nc1ccc(C#N)cc1` [Compound 24, 1-(4-cyanophenyl)-3-octylurea] were “good” and “low”.
With `CSc1ccc(NC(=O)Nc2ccccc2C)cc1` [Compound 14, 3-(2-methylphenyl)-1-[4-(methylsulfanyl)phenyl]urea], in data set [1], the “Solubility in cell medium” value is on record as “good”. In addition, in the data set on HEp2 or BSC1 cells (setting [2]), the Toxicity result was “low”.
With `N#Cc1ccc(NC(=O)Nc2ccccn2)cc1` [Compound 8, 3-(4-cyanophenyl)-1-(pyridin-2-yl)urea], the “Solubility in cell medium” value in data set [1] is “moderate”. For the same compound, the Toxicity entry in the data set with HEp2 or BSC1 cells (setting [2]) is listed as “toxic at 100, 32, 10 μM”.
As to `N#Cc1cccc(NC(=O)Nc2ccccn2)c1` [Compound 11, 3-(3-cyanophenyl)-1-(pyridin-2-yl)urea], in data set [1], the “Solubility in cell medium” value was “moderate”. Further, the Toxicity result with HEp2 or BSC1 cells (setting [2]) was “toxic at 100 μM”.
The like results for `COc1cccc(NC(=O)Nc2ccccc2C)c1` [Compound 13, 3-(3-methoxyphenyl)-1-(2-methylphenyl)urea] were, in that order, “good” and “toxic at 100 μM”.
`O=C(Nc1cccc(NC(=O)Nc2cccc([N+](=O)[O-])c2)c1)Nc1cccc([N+](=O)[O-])c1` [Compound 31, 1,1′-(1,3-phenylene)bis(3-(3-nitrophenyl)urea)]: in data set [1], the “Solubility in cell medium” value was “very poor”. Besides, the Toxicity result in the data set on HEp2 or BSC1 cells was “toxic at 100 μM”.
Consider `CC1CCCCC1NC(=O)Nc1cccc(C#N)c1` (stereo not drawn) [Compound 23, 1-(3-cyanophenyl)-3-(2-methylcyclohexyl)urea], for which the “Solubility in cell medium” value in data set [1] is “moderate”. For the same compound, the Toxicity entry in the data set on HEp2 or BSC1 cells (setting [2]) is on record as “low”.
The like results for `Cc1ccccc1NC(=S)N1CCOCC1` [Compound 30, N-(2-methylphenyl)morpholine-4-carbothioamide] were, in that order, “very good” and “low”.
For `CSc1cccc(NC(=O)Nc2cccc(NC(=O)Nc3cccc(SC)c3)c2)c1` [Compound 33, 1,1′-(1,3-phenylene)bis(3-(3-(methylthio)phenyl)urea)], in data set [1], the “Solubility in cell medium” value is reported as “poor”. Besides, in the data set on HEp2 or BSC1 cells (setting [2]), the Toxicity result is “toxic at 100 μM”.
Taken in the same sequence, the figures for `CCCCCCCCNC(=S)Nc1ccccc1C` [Compound 28, 1-(2-methylphenyl)-3-octylthiourea] were “good” and “low”.
